Target: Gamma-aminobutyric acid type B receptor subunit 1/2 (UniProt Q9Z0U4+O88871)
Assay: Displacement of [3H]baclofen from Gamma-aminobutyric acid type B receptor in rat brain membranes

Gamma-aminobutyric acid type B receptor subunit 1/2, sequence (Q9Z0U4 whole entry): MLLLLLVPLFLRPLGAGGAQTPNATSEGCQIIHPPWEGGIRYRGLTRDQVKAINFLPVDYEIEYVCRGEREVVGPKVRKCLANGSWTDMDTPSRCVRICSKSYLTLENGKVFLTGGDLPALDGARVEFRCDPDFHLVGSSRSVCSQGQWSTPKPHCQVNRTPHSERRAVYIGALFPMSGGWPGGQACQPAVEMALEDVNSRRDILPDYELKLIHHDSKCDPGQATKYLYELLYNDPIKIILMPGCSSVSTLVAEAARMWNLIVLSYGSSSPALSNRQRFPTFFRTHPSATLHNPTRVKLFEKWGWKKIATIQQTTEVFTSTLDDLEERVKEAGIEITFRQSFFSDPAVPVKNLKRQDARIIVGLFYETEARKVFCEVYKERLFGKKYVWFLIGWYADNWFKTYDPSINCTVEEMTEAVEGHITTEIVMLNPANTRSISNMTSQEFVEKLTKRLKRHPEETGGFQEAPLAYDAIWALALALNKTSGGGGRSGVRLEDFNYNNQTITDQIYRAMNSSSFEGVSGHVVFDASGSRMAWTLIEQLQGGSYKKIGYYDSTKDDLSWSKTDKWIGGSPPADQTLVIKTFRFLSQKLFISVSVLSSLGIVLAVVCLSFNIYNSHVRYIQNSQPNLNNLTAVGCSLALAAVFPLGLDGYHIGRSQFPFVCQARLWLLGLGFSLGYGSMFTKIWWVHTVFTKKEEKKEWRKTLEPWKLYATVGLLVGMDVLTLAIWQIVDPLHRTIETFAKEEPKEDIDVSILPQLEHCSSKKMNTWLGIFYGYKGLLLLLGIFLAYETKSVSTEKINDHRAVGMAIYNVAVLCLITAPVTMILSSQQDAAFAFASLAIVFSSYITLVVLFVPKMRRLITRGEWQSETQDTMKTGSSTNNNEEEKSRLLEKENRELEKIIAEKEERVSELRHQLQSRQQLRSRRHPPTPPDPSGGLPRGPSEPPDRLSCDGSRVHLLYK
Gamma-aminobutyric acid type B receptor subunit 1/2, sequence (O88871 whole entry): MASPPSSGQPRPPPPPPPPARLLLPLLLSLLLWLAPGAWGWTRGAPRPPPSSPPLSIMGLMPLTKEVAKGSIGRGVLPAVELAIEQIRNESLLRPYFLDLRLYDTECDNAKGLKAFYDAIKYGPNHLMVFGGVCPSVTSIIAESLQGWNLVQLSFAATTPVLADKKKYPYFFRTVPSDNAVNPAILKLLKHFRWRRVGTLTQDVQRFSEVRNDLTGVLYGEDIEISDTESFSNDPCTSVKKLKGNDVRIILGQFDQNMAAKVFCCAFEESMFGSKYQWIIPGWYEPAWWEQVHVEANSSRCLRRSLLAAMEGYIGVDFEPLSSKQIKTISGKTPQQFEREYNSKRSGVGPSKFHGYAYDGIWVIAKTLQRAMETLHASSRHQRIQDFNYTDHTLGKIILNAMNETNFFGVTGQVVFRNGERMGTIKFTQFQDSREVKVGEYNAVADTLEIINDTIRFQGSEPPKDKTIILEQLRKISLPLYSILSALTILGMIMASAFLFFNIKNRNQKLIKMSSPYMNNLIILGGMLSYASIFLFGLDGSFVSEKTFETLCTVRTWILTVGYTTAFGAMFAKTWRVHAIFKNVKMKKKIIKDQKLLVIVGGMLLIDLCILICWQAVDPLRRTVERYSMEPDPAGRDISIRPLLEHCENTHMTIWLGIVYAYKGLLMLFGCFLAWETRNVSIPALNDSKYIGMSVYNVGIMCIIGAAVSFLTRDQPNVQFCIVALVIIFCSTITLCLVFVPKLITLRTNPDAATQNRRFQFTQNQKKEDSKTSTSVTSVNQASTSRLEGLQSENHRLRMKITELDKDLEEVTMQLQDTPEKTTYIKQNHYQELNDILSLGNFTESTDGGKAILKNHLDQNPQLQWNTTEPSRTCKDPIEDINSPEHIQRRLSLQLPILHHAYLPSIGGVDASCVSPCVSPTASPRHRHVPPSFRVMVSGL

Question: NCC1CC(=O)CC(=O)C1 was tested. Which IC50 did it give?
Answer: The IC50 was over 100 µM.

From BindingDB's records for doi:10.1021/jm00148a012 (1985)
